In the test the test system is human TH17 cells. Put plainly: Inhibition of IL-17 release from human TH17 cells. It is filed as cell-based. The settings on record: Homo sapiens, 96 h, isolated human TH17 cells, 4 days culture, IL-17A by HTRF; read-out: pIC50 IL-17 release (converted). An excerpt: Inhibition of IL-17 Release from Human TH17 Cells (IL-17 Release)
This test is designed to screen compounds for their inhibitory effect on the release of IL-17 from isolated and cultured human TH17 cells.
Peripheral blood mononuclear cells (PBMC) were isolated from heparin treated human whole blood fromhealthy donors by density gradient centrifugation. TH17 cells (CD4+CXCR3-CCR6+) were enriched using a human TH17 Cell Enrichment Kit (Stemcell Technologies) according to the manufacturer's protocol. […] On day 4 supernatants were collected and IL-17A was measured using a Human IL-17 HTRF Assay kit (Cisbio Bioassays) according to the manufacturer's protocol. […] Results
(In TR-FRET formats the signal depends on donor and acceptor labels being close together.)
For `O=C(Nc1ccc(C(O)(C(F)(F)F)C(F)(F)F)cc1)C1c2ccc(S(=O)(=O)CC3CC3)cc2CN1C(=O)CC1(O)CC1` (stereo not shown) [Example 206, 5-[(Cyclopropylmethyl)sulfonyl]-N-[4-(1,1,1,3,3,3-hexafluoro-2-hydroxypropan-2-yl)phenyl]-2-[(1-hydroxycyclopropyl)acetyl]-2,3-dihydro-1H-isoindole-1-carboxamide], the IC50 was 39.8 nM.
`CC(C)(O)CC(=O)N1Cc2cc(S(=O)(=O)CC3CC3)ccc2C1C(=O)Nc1ccc(C(O)(C(F)(F)F)C(F)(F)F)cc1` (stereo not shown) [Example 207, 5-[(Cyclopropylmethyl)sulfonyl]-N-[4-(1,1,1,3,3,3-hexafluoro-2-hydroxypropan-2-yl)phenyl]-2-(3-hydroxy-3-methylbutanoyl)-2,3-dihydro-1H-isoindole-1-carboxamide]: the IC50 is 39.8 nM.
Take `O=C(Nc1ccc(C(O)(C(F)(F)F)C(F)(F)F)cc1)C1c2ccc(S(=O)(=O)CC3CC3)cc2CN1C(=O)C1CCCO1` (stereo not shown) [Example 208, 5-[(Cyclopropylmethyl)sulfonyl]-N-[4-(1,1,1,3,3,3-hexafluoro-2-hydroxypropan-2-yl)phenyl]-2-(tetrahydrofuran-2-ylcarbonyl)-2,3-dihydro-1H-isoindole-1-carboxamide]: the IC50 is 20 nM.
Then `N#CC1(C(=O)N2Cc3cc(S(=O)(=O)CC4CC4)ccc3C2C(=O)Nc2ccc(C(O)(C(F)(F)F)C(F)(F)F)cc2)CC1` (stereo not shown) [Example 209, 2-[(1-Cyanocyclopropyl)carbonyl]-5-[(cyclopropylmethyl)sulfonyl]-N-[4-(1,1,1,3,3,3-hexafluoro-2-hydroxypropan-2-yl)phenyl]-2,3-dihydro-1H-isoindole-1-carboxamide], with 25.1 nM.
Then `O=C(Nc1ccc(C(O)(C(F)(F)F)C(F)(F)F)cc1)C1c2ccc(S(=O)(=O)CC3CC3)cc2CN1C(=O)C1CCOC1` (stereo not shown) [Example 210, 5-[(Cyclopropylmethyl)sulfonyl]-N-[4-(1,1,1,3,3,3-hexafluoro-2-hydroxypropan-2-yl)phenyl]-2-(tetrahydrofuran-3-ylcarbonyl)-2,3-dihydro-1H-isoindole-1-carboxamide], with 25.1 nM.
For `NC(C(=O)N1Cc2cc(S(=O)(=O)CC3CC3)ccc2C1C(=O)Nc1ccc(C(O)(C(F)(F)F)C(F)(F)F)cc1)C1CC1` (stereo not shown) [Example 211, 2-[Amino(cyclopropyl)acetyl]-5-[(cyclopropylmethyl)sulfonyl]-N-[4-(1,1,1,3,3,3-hexafluoro-2-hydroxypropan-2-yl)phenyl]-2,3-dihydro-1H-isoindole-1-carboxamide], the IC50 is 200 nM.
Turning to `COC1(C(=O)N2Cc3cc(S(=O)(=O)CC4CC4)ccc3C2C(=O)Nc2ccc(C(O)(C(F)(F)F)C(F)(F)F)cc2)CC1` (stereo not shown) [Example 212, 5-[(Cyclopropylmethyl)sulfonyl]-N-[4-(1,1,1,3,3,3-hexafluoro-2-hydroxypropan-2-yl)phenyl]-2-[(1-methoxycyclopropyl)carbonyl]-2,3-dihydro-1H-isoindole-1-carboxamide], the IC50 was 15.8 nM.
As to `COC(=O)N1Cc2cc(S(=O)(=O)CC3CC3)ccc2C1C(=O)Nc1ccc(C(O)(C(F)(F)F)C(F)(F)F)cc1` (stereo not shown) [Example 213, Methyl 5-[(cyclopropylmethyl)sulfonyl]-1-{[4-(1,1,1,3,3,3-hexafluoro-2-hydroxypropan-2-yl)phenyl]carbamoyl}-1,3-dihydro-2H-isoindole-2-carboxylate], the IC50 was 7.94 nM.
Then `O=C(Nc1ccc(C(O)(C(F)(F)F)C(F)(F)F)cc1)C1c2ccc(S(=O)(=O)CC3CC3)cc2CN1C(=O)C(F)(F)C1CC1` (stereo not shown) [Example 214, 2-[Cyclopropyl(difluoro)acetyl]-5-[(cyclopropylmethyl)sulfonyl]-N-[4-(1,1,1,3,3,3-hexafluoro-2-hydroxypropan-2-yl)phenyl]-2,3-dihydro-1H-isoindole-1-carboxamide], with 10 nM; and `CNS(=O)(=O)c1ccc2c(c1)CNC2C(=O)Nc1ccc(C(O)(C(F)(F)F)C(F)(F)F)cc1` (stereo not shown) [Example 300, N-[4-(1,1,1,3,3,3-hexafluoro-2-hydroxypropan-2-yl)phenyl]-5-(methylsulfamoyl)-2,3-dihydro-1H-isoindole-1-carboxamide], with 25.1 nM; and `CNS(=O)(=O)c1ccc2c(c1)CN(C(=O)OC)C2C(=O)Nc1ccc(C(O)(C(F)(F)F)C(F)(F)F)cc1` (stereo not shown) [Example 304, Methyl 1-{[4-(1,1,1,3,3,3-hexafluoro-2-hydroxypropan-2-yl)phenyl]carbamoyl}-5-(methylsulfamoyl)-1,3-dihydro-2H-isoindole-2-carboxylate], with 12.6 nM.
Then `CCOC(=O)N1Cc2cc(S(=O)(=O)NC)ccc2C1C(=O)Nc1ccc(C(O)(C(F)(F)F)C(F)(F)F)cc1` (stereo not shown) [Example 305, Ethyl 1-{[4-(1,1,1,3,3,3-hexafluoro-2-hydroxypropan-2-yl)phenyl]carbamoyl}-5-(methylsulfamoyl)-1,3-dihydro-2H-isoindole-2-carboxylate], with 10 nM; and `CNS(=O)(=O)c1ccc2c(c1)CN(C(=O)C1(OC)CC1)C2C(=O)Nc1ccc(C(O)(C(F)(F)F)C(F)(F)F)cc1` (stereo not shown) [Example 306, N-[4-(1,1,1,3,3,3-Hexafluoro-2-hydroxypropan-2-yl)phenyl]-2-[(1-methoxycyclopropyl)carbonyl]-5-(methylsulfamoyl)-2,3-dihydro-1H-isoindole-1-carboxamide], with 20 nM.
For `CNS(=O)(=O)c1ccc2c(c1)CN(C(=O)COC)C2C(=O)Nc1ccc(C(O)(C(F)(F)F)C(F)(F)F)cc1` (stereo not shown) [Example 308, N-[4-(1,1,1,3,3,3-Hexafluoro-2-hydroxypropan-2-yl)phenyl]-2-(methoxyacetyl)-5-(methylsulfamoyl)-2,3-dihydro-1H-isoindole-1-carboxamide], the IC50 was 31.6 nM.
The result for `CNS(=O)(=O)c1ccc2c(c1)CN(C(=O)[C@H]1CCCO1)C2C(=O)Nc1ccc(C(O)(C(F)(F)F)C(F)(F)F)cc1` (stereo partly drawn) [Example 310, N-[4-(1,1,1,3,3,3-Hexafluoro-2-hydroxypropan-2-yl)phenyl]-5-(methylsulfamoyl)-2-[(2R)-tetrahydrofuran-2-ylcarbonyl]-2,3-dihydro-1H-isoindole-1-carboxamide] reads 31.6 nM; that for `CNS(=O)(=O)c1ccc2c(c1)CN(C(=O)[C@@H]1CCCO1)C2C(=O)Nc1ccc(C(O)(C(F)(F)F)C(F)(F)F)cc1` (stereo partly drawn) [Example 311, N-[4-(1,1,1,3,3,3-Hexafluoro-2-hydroxypropan-2-yl)phenyl]-5-(methylsulfamoyl)-2-[(2S)-tetrahydrofuran-2-ylcarbonyl]-2,3-dihydro-1H-isoindole-1-carboxamide], 31.6 nM.
The result for `CCC(OC)C(=O)N1Cc2cc(S(=O)(=O)NC)ccc2C1C(=O)Nc1ccc(C(O)(C(F)(F)F)C(F)(F)F)cc1` (stereo not shown) [Example 312, N-[4-(1,1,1,3,3,3-Hexafluoro-2-hydroxypropan-2-yl)phenyl]-2-(2-methoxybutanoyl)-5-(methylsulfamoyl)-2,3-dihydro-1H-isoindole-1-carboxamide] reads 39.8 nM.
Then `CNS(=O)(=O)c1ccc2c(c1)CN(C(=O)CO)C2C(=O)Nc1ccc(C(O)(C(F)(F)F)C(F)(F)F)cc1` (stereo not shown) [Example 313, N-[4-(1,1,1,3,3,3-Hexafluoro-2-hydroxypropan-2-yl)phenyl]-2-(hydroxyacetyl)-5-(methylsulfamoyl)-2,3-dihydro-1H-isoindole-1-carboxamide], with 100 nM.
For the molecule `CNC(=O)N1Cc2cc(S(=O)(=O)NC)ccc2C1C(=O)Nc1ccc(C(O)(C(F)(F)F)C(F)(F)F)cc1` (stereo not shown) [Example 314], the IC50 is 63.1 nM.
Then `CS(=O)(=O)c1ccc2c(c1)CN(C(=O)Cc1ccccc1)C2C(=O)Nc1ccc(C(O)(C(F)(F)F)C(F)(F)F)cc1` (stereo not shown) [Example 402, N-[4-(1,1,1,3,3,3-Hexafluoro-2-hydroxypropan-2-yl)phenyl]-5-(methylsulfonyl)-2-(phenylacetyl)-2,3-dihydro-1H-isoindole-1-carboxamide], with 12.6 nM; and `CC(CF)C(=O)N1Cc2cc(S(C)(=O)=O)ccc2C1C(=O)Nc1ccc(C(O)(C(F)(F)F)C(F)(F)F)cc1` (stereo not shown) [Example 408, 2-(3-Fluoro-2-methylpropanoyl)-N-[4-(1,1,1,3,3,3-hexafluoro-2-hydroxypropan-2-yl)phenyl]-5-(methylsulfonyl)-2,3-dihydro-1H-isoindole-1-carboxamide], with 12.6 nM; and `CC(C)CC(=O)N1Cc2cc(S(C)(=O)=O)ccc2C1C(=O)Nc1ccc(C(O)(C(F)(F)F)C(F)(F)F)cc1` (stereo not shown) [Example 410, N-[4-(1,1,1,3,3,3-Hexafluoro-2-hydroxypropan-2-yl)phenyl]-2-(3-methylbutanoyl)-5-(methylsulfonyl)-2,3-dihydro-1H-isoindole-1-carboxamide], with 20 nM.
The result for `CS(=O)(=O)c1ccc2c(c1)CN(C(=O)CC1CC1)C2C(=O)Nc1ccc(C(O)(C(F)(F)F)C(F)(F)F)cc1` (stereo not shown) [Example 411, 2-(Cyclopropylacetyl)-N-[4-(1,1,1,3,3,3-hexafluoro-2-hydroxypropan-2-yl)phenyl]-5-(methylsulfonyl)-2,3-dihydro-1H-isoindole-1-carboxamide] reads 25.1 nM; that for `CS(=O)(=O)c1ccc2c(c1)CN(C(=O)CC1(O)CC1)C2C(=O)Nc1ccc(C(O)(C(F)(F)F)C(F)(F)F)cc1` (stereo not shown) [Example 412, N-[4-(1,1,1,3,3,3-Hexafluoro-2-hydroxypropan-2-yl)phenyl]-2-[(1-hydroxycyclopropyl)acetyl]-5-(methylsulfonyl)-2,3-dihydro-1H-isoindole-1-carboxamide], 25.1 nM; that for `C[C@H](F)CC(=O)N1Cc2cc(S(C)(=O)=O)ccc2C1C(=O)Nc1ccc(C(O)(C(F)(F)F)C(F)(F)F)cc1` (stereo partly drawn) [Example 413, 2-[(3S)-3-Fluorobutanoyl]-N-[4-(1,1,1,3,3,3-hexafluoro-2-hydroxypropan-2-yl)phenyl]-5-(methylsulfonyl)-2,3-dihydro-1H-isoindole-1-carboxamide], 31.6 nM.

These data come from patent US10988445B2 (AstraZeneca AB, priority 2015, dated 2021).
